≈ marks a conversion by molar mass, not a printed value. Read-outs that look alike come from different tables or passages of the source. Marks after values point to notes of the source that are not given here.
Tests used:
[1] = target: T1, α-amylase from Aspergillus oryzae (Aspergillus oryzae, UniProt P0C1B3); assay: α-amylase inhibiting potential, spectrophotometric assay; type: biochemical; conditions: (acarbose IC50/sample IC50) × 1000, average ± S.D., text prints mg acarbose/g
T1 construct: purchased Sigma-Aldrich 10065
Protocol: (§1) The α-amylase inhibiting potential and α-glucosidase inhibiting potential were performed using spectrophotometric assays. The α-amylase from Aspergillus oryzae (3 U/mL) and α-glucosidase from Saccharomyces cerevisae (0.5 U/mL) were used as […]. […] Values are expressed as mean obtained from six independent experiments.

[2] = DPPH radical scavenging assay; type: biochemical; conditions: for DPPH, 2,2-diphenyl-1-picrylhydrazyl radical scavenging activity: (trolox IC50/sample IC50) × 1000, average ± S.D., text prints mg trolox/g
Protocol: The 2,2-diphenyl-1-picrylhydrazyl (DPPH) radical scavenging activity was performed as described earlier. […] The IC50 value was found as the effective concentration at which DPPH radicals were scavenged by 50%. The value of antioxidant activity (A^DPPH) against DPPH radicals was found as a ratio of trolox IC50 to sample IC50 [A^DPPH = (IC50^Trolox/ IC50^Sample) × 1000] and expressed as mg of trolox in 1 g of sample. Values are expressed as mean obtained from five independent experiments.

[3] = lipid peroxidation inhibition assay; type: biochemical; conditions: for LPA, lipid peroxidation inhibition activity: (caffeic acid IC50/sample IC50) × 1000, average ± S.D., text prints mg caffeic acid/g
Description: The previously described method was used to investigate the lipid peroxidation inhibition potency. […] The IC50 value was found as the effective sample concentration gave 50% reduction of optical density of initial solution. The value of lipid peroxidation inhibition (I) was found as a ratio of caffeic acid IC50 to sample IC50 [I = (IC50^Caffeic acid/ IC50^Sample) × 1000] and expressed as mg of caffeic acid in 1 g of sample. Values are expressed as mean obtained from five independent experiments.

[4] = superoxide anion radical scavenging assay; type: biochemical; conditions: for O2^-, superoxide anion-radical scavenging activity: (quercetin IC50/sample IC50) × 1000, average ± S.D., text prints mg quercetin/g
Description: The known assay was used to determine superoxide anion radical scavenging activity. […] The IC50 value was found as the effective concentration at which superoxide anion radicals were scavenged by 50%. The value of antioxidant activity (A^O2•) against superoxide anion radicals was found as a ratio of quercetin IC50 to sample IC50 [A^O2• = (IC50^Quercetin/ IC50^Sample) × 1000] and expressed as mg of quercetin in 1 g of sample. Values are expressed as mean obtained from five independent experiments.

[5] = target: T2, α-glucosidase from Saccharomyces cerevisiae (Saccharomyces cerevisiae, UniProt P53341); assay: α-glucosidase inhibiting potential, spectrophotometric assay; type: biochemical; conditions: (acarbose IC50/sample IC50) × 1000; average ± S.D.; text prints mg acarbose/g
T2 construct: purchased Sigma-Aldrich G5003
T2 sequence (P53341 whole entry): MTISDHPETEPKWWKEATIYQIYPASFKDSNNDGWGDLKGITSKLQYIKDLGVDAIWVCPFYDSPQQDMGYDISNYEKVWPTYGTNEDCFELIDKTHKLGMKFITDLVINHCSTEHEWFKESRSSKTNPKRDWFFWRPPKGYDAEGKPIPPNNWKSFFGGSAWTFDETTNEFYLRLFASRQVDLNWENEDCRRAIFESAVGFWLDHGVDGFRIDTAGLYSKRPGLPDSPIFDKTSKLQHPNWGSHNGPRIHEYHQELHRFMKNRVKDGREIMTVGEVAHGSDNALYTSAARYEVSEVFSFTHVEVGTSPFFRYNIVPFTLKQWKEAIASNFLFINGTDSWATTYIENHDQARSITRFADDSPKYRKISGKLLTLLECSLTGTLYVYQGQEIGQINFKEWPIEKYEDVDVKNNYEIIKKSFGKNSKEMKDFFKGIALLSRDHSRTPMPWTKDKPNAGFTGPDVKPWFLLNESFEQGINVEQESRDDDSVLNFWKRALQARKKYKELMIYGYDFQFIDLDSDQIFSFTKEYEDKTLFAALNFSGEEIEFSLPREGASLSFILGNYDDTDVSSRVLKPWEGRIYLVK
Protocol: as §1

[6] = HPLC-DAD assay coupled with pre-chromatographic reaction with DPPH radicals; type: biochemical; conditions: peak in G. asclepiadea herb extract, HPLC-DAD 210 nm
Protocol: Scavenging activity against DPPH radicals of gentian herb extracts were medium to high and varied from 147.57 mg trolox/g for G. paradoxa to 580.71 mg trolox/g for G. asclepiadea (Table 3). Extracts of gentian roots were characterized by mostly low activity, with activity values <10 mg trolox/g. […] Figure 9a,b show chromatograms of G. asclepiadea herb extract before and after reaction with DPPH radical. […]. Additional phenolic groups such as 2,3-dihydroxybenzoyl in iridoid structures of gelidoside (rindoside) and trifloroside can increase the radical scavenging potential, but not much (20.82–25.14 mg trolox/g).
Figure 9 HPLC-DAD chromatograms (210 nm) of G. asclepiadea herb extract before (a) and after (b) pre-chromatographic reaction with DPPH radicals and G. gelida roots extract before (c) and after (d) pre-chromatographic reaction with DPPH radicals. Zone of compounds numbered as follows: i—loganic acid; ii—swertiamarin; iii—isoorientin-2″-O-glucoside; iv—gentiopicroside; v—mangiferin; vi—isovitexin-2″-O-glucoside; vii—isoorientin; viii—saponarin; ix—isovitexin; x—luteolin-7-O-glucoside; xi—apigenin-7-O-glucoside; xii—gentiopicroside-6″-O-glucoside; xiii—gelidoside (rindoside); xiv—trifloroside. […] TEXT PRINTED IN THE PICTURE: (b) i: 3% | (b) iii: 72% | (b) iv: 5% | (b) v: 98% | (b) vii: 85% | (b) xi: 11% | (d) iv: 5% | (d) xiii: 8% | (d) xiv: 5% DOUBTS OF THE COPYIST ABOUT THIS PICTURE: The picture prints no measure with the percentages; only the bare % values are copied. / Panel d, 8% (arrow): taken as peak xiii, with 5% taken as xiv; peaks xiii and xiv lie close together, so the assignment is not fully certain. / Panel b, 98% (arrow): taken as peak v, which lies on the shoulder of iv. / The percentages are printed under traces (b) and (d) but compare (a) with (b) and (c) with (d), so the panel choice is uncertain.

[7] = parameters: method as in doi:10.1016/j.indcrop.2015.04.013; conditions: G. cruciata (Serbia) study; cited from earlier work
[8] = cited from earlier work
[9] = parameters: method as in doi:10.1016/j.indcrop.2015.04.013; conditions: cited from earlier work

For `O=c1cc(-c2ccc(O)cc2)oc2cc(O)c([C@@H]3O[C@H](CO)[C@@H](O)[C@H](O)[C@H]3O)c(O)c12` [Isovitexin], the “αAIP, α-amylase inhibitory potential” value [1] was 108.35 ± 3.79 ^xxii mg of acarbose per g of dry extract weight, the “αAIP, α-amylase inhibitory potential” value ([1]; listed as isovitexin) was “medium” and the “DPPH, 2,2-diphenyl-1-picrylhydrazyl radical scavenging activity” value [2] was 425.11 ± 8.50 ^v mg of trolox per g of dry extract weight. For the same molecule, the “LPA, lipid peroxidation inhibition activity” value [3] was 96.54 ± 3.73 ^xvii mg of caffeic acid per g of dry extract weight and the “O2^-, superoxide anion-radical scavenging activity” value [4] was 211.63 ± 4.20 ^xii mg of quercetin per g of dry extract weight.
With `O=c1cc(-c2ccc(O)c(O)c2)oc2cc(O)c([C@@H]3O[C@H](CO)[C@@H](O)[C@H](O)[C@H]3O)c(O)c12` [Isoorientin, Luteolin-6-C-Glc (isoorientin)] the “αGIP, α-glycosidase inhibitory potential” value [5] was 811.10 ± 32.44 ^xxxvi mg of acarbose per g of dry extract weight, the “αAIP, α-amylase inhibitory potential” value [1] was 1242.03 ± 44.71 ^xxviii mg of acarbose per g of dry extract weight and the “percentage of peak area reduction after pre-chromatographic reaction with DPPH radicals” value (“percentage of peak area reduction” below) [6] was 72–98%.
In the case of `O=C(O)c1cc(O)c(O)c(O)c1` [gallic acid], the “superoxide scavenging potential (IC50)” value [7] is given as 360 µg/mL.
For `Cc1c(C)c2c(c(C)c1O)CCC(C)(C(=O)O)O2` (stereo not drawn) [trolox, reference compound], the “IC50, DPPH radicals scavenged by 50%” value ([2]; positive control) was 11.62 ± 0.23 µg/mL (≈ 46.4 µM).
In the case of `O=c1cc(-c2ccc(O)c(O)c2)oc2cc(O)c([C@@H]3O[C@H](CO)[C@@H](O)[C@H](O)[C@H]3O[C@@H]3O[C@H](CO)[C@@H](O)[C@H](O)[C@H]3O)c(O)c12` [isoorientin-2″-O-glucoside, Isoorientin-2″-O-Glc], the “percentage of peak area reduction” value [6] was 72–98%.
In the case of `O=C1O[C@H]([C@@H](O)CO)C(O)=C1O` [ascorbic acid], the “IC50 in the DPPH assay” value ([8]; Serbian species G. asclepiadea study) is listed as 5.23 µg/mL (≈ 29.7 µM) and the “IC50 in the DPPH assay” value ([8]; Serbian species G. cruciata study) is listed as 6.05 µg/mL (≈ 34.4 µM).
For `C=C[C@@H]1C2=CCOC(=O)C2=CO[C@H]1O[C@@H]1O[C@H](CO)[C@@H](O)[C@H](O)[C@H]1O` [Gentiopicroside], the “αGIP, α-glycosidase inhibitory potential” value [5] was < 10.00 mg of acarbose per g of dry extract weight, the “αAIP, α-amylase inhibitory potential” value [1] was < 10.00 mg of acarbose per g of dry extract weight and the “DPPH, 2,2-diphenyl-1-picrylhydrazyl radical scavenging activity” value [2] was < 10.00 mg of trolox per g of dry extract weight. For the same molecule, the “DPPH, 2,2-diphenyl-1-picrylhydrazyl radical scavenging activity” value ([2]; listed as gentiopicroside) was < 10 mg of trolox per g of dry extr, the “percentage of peak area reduction” value [6] was 3–5% and the “LPA, lipid peroxidation inhibition activity” value [3] was < 10.00 mg of caffeic acid per g of dry extract weight. For the same molecule, the “O2^-, superoxide anion-radical scavenging activity” value [4] was < 10.00 mg of quercetin per g of dry extract weight.
With `O=c1c2cc(O)c(O)cc2oc2cc(O)c([C@@H]3O[C@H](CO)[C@@H](O)[C@H](O)[C@H]3O)c(O)c12` [Mangiferin] the “αGIP, α-glycosidase inhibitory potential” value [5] was 1562.84 ± 62.48 ^xxxvii mg of acarbose per g of dry extract weight, the “αAIP, α-amylase inhibitory potential” value [1] was 296.14 ± 10.36 ^xxiv mg of acarbose per g of dry extract weight and the “DPPH, 2,2-diphenyl-1-picrylhydrazyl radical scavenging activity” value [2] was 3824.20 ± 76.48 ^viii mg of trolox per g of dry extract weight. The “DPPH, 2,2-diphenyl-1-picrylhydrazyl radical scavenging activity” value ([2]; listed as mangiferin) was 3824.20 mg of trolox per g of dry extr, the “percentage of peak area reduction” value [6] was 72–98% and the “LPA, lipid peroxidation inhibition activity” value [3] was 522.14 ± 20.85 ^xx mg of caffeic acid per g of dry extract weight. The “LPA, lipid peroxidation inhibition activity” value ([3]; listed as mangiferin) was 522.14 mg of caffeic acid per g of dr, the “O2^-, superoxide anion-radical scavenging activity” value [4] was 927.07 ± 18.54 ^xiv mg of quercetin per g of dry extract weight and the “O2^-, superoxide anion-radical scavenging activity” value ([4]; listed as mangiferin) was 927.07 mg of quercetin per g of dry e.
For `O=c1c(O)c(-c2ccc(O)c(O)c2)oc2cc(O)cc(O)c12` [Quercetin, quercetin, reference compound], the “IC50, superoxide anion radicals scavenged by 50%” value ([4]; positive control) was 21.74 ± 0.42 µg/mL (≈ 71.9 µM).
In the case of `Cc1cc(C(C)(C)C)c(O)c(C(C)(C)C)c1` [butylated hydroxytoluene], the “IC50, inhibitory activity toward lipid peroxidation” value [9] is listed as 1.00 µg/mL (≈ 4.54 µM).
In the case of `O=C(O)/C=C/c1ccc(O)c(O)c1` [Caffeic acid, caffeic acid, reference compound], the “IC50, lipid peroxidation inhibition” value ([3]; positive control) was 58.96 ± 1.14 µg/mL (≈ 327 µM).
With `C[C@@H]1[C@H]2[C@H](O[C@@H]3O[C@H](CO)[C@@H](O)[C@H](O)[C@H]3O)OC=C(C(=O)O)[C@H]2C[C@@H]1O` [Loganic Acid, Loganic acid] the “αGIP, α-glycosidase inhibitory potential” value [5] was < 10.00 mg of acarbose per g of dry extract weight, the “αAIP, α-amylase inhibitory potential” value [1] was < 10.00 mg of acarbose per g of dry extract weight and the “DPPH, 2,2-diphenyl-1-picrylhydrazyl radical scavenging activity” value [2] was < 10.00 mg of trolox per g of dry extract weight. The “DPPH, 2,2-diphenyl-1-picrylhydrazyl radical scavenging activity” value ([2]; listed as loganic acid) was < 10 mg of trolox per g of dry extr, the “percentage of peak area reduction” value [6] was 3–5% and the “LPA, lipid peroxidation inhibition activity” value [3] was < 10.00 mg of caffeic acid per g of dry extract weight. The “O2^-, superoxide anion-radical scavenging activity” value [4] was < 10.00 mg of quercetin per g of dry extract weight.

From article PMC6918269, “Caucasian Gentiana Species: Untargeted LC-MS Metabolic Profiling, Antioxidant and Digestive Enzyme Inhibiting Activity of Six Plants” (Metabolites, 2019)
